Measurements from patent publication EP3325012B1, “CINEOLE-CONTAINING COMPOSITION FOR TREATING NOSE POLYPS” (Maria Clementine Martin Klosterfrau Vertriebsgesellschaft …, priority 2015, dated 2017).
Entries after “also recorded” stand apart in the source; their conditions may differ.

Columns and labels:
[1] = tested on: WIF-1; conditions: Colon-Ca-Zelllinien; cited from earlier work
[2] = tested on: beta-Catenin; assay: Anti-(active-)beta-catenin immunohistochemistry on polyp single-cell suspensions (chamber slides); type: cell-based, Mensch; conditions: 24 h incubation
Procedure: Im entzündlichen Infiltrat des Polyposisgewebes ließ sich immunhistochemisch nukleäres beta-Catenin nachweisen.
Es wurde eine Anti-Active-beta-Catenin-Immunhistochemie auf mit dem GSK-3-Inhibitor SB216763 für 24 h inkubierter Polyposis-Einzelzellsuspension (Chamber Slide) durchgeführt.

[3] = tested on: Polyposis-Primärgewebe; assay: Cytokine release from polyposis primary tissue; type: cell-based, Mensch; conditions: incubation of primary tissue

Compound	Regulation von WIF-1 [1]	Akkumulation von beta-Catenin im Zytoplasma [2]	Translokation von beta-Catenin in den Zellkern [2]	Ausschüttung von IL-6 [3]	Ausschüttung von IL-8 [3]
CC(=O)Oc1ccccc1C(=O)O [Acetylsalicylsäure]	Hochregulation	–	–	–	–
Cn1cc(C2=C(c3ccc(Cl)cc3Cl)C(=O)NC2=O)c2ccccc21 [SB216763]	–	Akkumulation von beta-Catenin im Zytoplasma; also recorded: deutliche Anreicherung	Translokation von beta-Catenin in den Zellkern	verminderte Ausschüttung	verminderte Ausschüttung
